What was measured:
human CCR10 = biological target: T1, human CCR10 (Homo sapiens, UniProt P46092); assay: CCR10 antagonistic effect: calcium assay of human CCR10 (CTACK-induced increase of intracellular calcium in hCCR10G16 cells); assay type: cell-based; settings: at a concentration of not more than 1000 nmol/L; human CCR10-expressing hCCR10G16 cells, 300 nmol/L CTACK added; read-out: inhibition of increase in the calcium ion concentration
T1 construct: expressed in transfected cells; host or cells: KJMGER8 cells (Namalwa cell-derived line), beta-estradiol-induced; hCCR10G16 cells
T1 sequence (P46092 1-362): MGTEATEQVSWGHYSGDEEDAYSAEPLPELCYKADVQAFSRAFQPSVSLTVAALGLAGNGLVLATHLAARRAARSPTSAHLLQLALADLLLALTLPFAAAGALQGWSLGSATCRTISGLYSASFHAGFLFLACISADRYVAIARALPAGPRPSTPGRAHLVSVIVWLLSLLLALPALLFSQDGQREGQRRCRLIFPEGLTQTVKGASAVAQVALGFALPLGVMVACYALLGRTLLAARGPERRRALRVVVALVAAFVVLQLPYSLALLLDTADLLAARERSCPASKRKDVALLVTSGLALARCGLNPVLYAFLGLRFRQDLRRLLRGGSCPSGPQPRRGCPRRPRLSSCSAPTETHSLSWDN
Summary of the method: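 Inhibition of CTACK-evoked calcium flux (max minus min Fluo-3 fluorescence over ~5 min, FDSS) was calculated against control in β-estradiol-induced human CCR10/Gα16 KJMGER8 cells, after 30 min compound preincubation at 37 °C; CTACK added from a 300 nmol/L solution.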

[1] = system: Dinitrofluorobenzene-induced Auricle Edema Reaction in Mouse; assay: Suppressive action on dinitrofluorobenzene-induced auricle edema reaction in mouse; assay type: in vivo; settings: BALB/c mice; for suppressive action on auricle edema response (in words): topical application in acetone, summary of Table 28; for inhibition in vivo at 1 %: test compound concentration 1% (w/v) in acetone
Experimental: [Experimental Example 2] Suppressive Action on Dinitrofluorobenzene-induced Auricle Edema Reaction in Mouse
BALB/c mice (female, supplied by CHARLES RIVER LABORATORIES JAPAN, INC.) were purchased at the age of 5 weeks. After quarantine and acclimation, mice showing smooth body weight increase and free of abnormality in appearance were used and the test was started at the age of 7 weeks. The mice were housed in a breeding room at room temperature 19-25° C., humidity 30-70%, 12 hr lighting per day (7 a.m.-7 p.m.) with 3 mice in each plastic gauge, and bred on with free ingestion of a commercially available solid feed and water.
Two days before the test, the abdomen of the BALB/c mice was shaved, and the mice were immunized by applying 100 μL of a solution {concentration 0.5% [weight (w)/volume (v) %]} of dinitrofluorobenzene (manufactured by Nacalai Tesque) in acetone (manufactured by Wako Pure Chemical Industries, Ltd.) to the shaved part. The reaction was induced by applying dinitrofluorobenzene-acetone solution [concentration 0.2% (w/v %)] to the front and the back of auricle (10 μL to each, total 20 μL) on day 5 after the immunization. A test compound dissolved in acetone at concentration of 0.1% or 1% (w/v %) was administered by applying same to the front and the back of auricle (10 μL to each, total 20 μL) 1 hr before and 3 hr after induction of the reaction. After application, the applied part was air-dried with a dryer.
The group applying administered with the test compound was taken as a test compound administration group, and the group applying administered with acetone as a solvent instead of the test compound was taken as a solvent administration group. Also, the group free of immunization and reaction induction but applying administered with acetone instead of the test compound was taken as a normal group. The thickness of auricle was measured using a dial thickness gauge (G-1A manufactured by OZAKI MFG. CO., LTD.) immediately before and 24 hr after induction of the reaction, and the difference thereof was taken as auricle edema. The suppression rate (%) of auricle edema was calculated according to the following formula.

[2] = Mus musculus, topical, applied to auricle 1 hr before and 3 hr after induction, measured 24 hr after induction, read-out: auricle edema suppression rate (%)

| SMILES | inhibition at up to 1 µM (human CCR10) | suppressive action on auricle edema response (in words) [1] | inhibition in vivo at 1 % [1, 2] | inhibition in vivo at 0.1 % ([1]; Mus musculus, topical, test compound concentration 0.1% (w/v) in acetone, applied to auricle 1 hr before and 3 hr after induction, measured 24 hr after induction, read-out: auricle edema suppression rate (%)) |
| --- | --- | --- | --- | --- |
| Cc1cc(F)ccc1Nc1cc(S(=O)(=O)Nc2ccon2)ncc1C(=O)N1CCC(c2ccc(F)cc2)CC1 [Compound 11, 4-(4-fluoro-2-methylphenylamino)-5-[4-(4-fluorophenyl)piperidine-1-carbonyl]-N-(isoxazol-3-yl)pyridine-2-sulfonamide] | ≥ 50% | showed a suppressive action on auricle edema response | 32% | – |
| Cc1cc(Cl)ccc1Nc1cc(S(=O)(=O)NC(=O)NC2CC2)ncc1C(=O)N1CCC(c2ccc(F)cc2)CC1 [Compound 21, 4-(4-chloro-2-methylphenylamino)-N-(cyclopropylcarbamoyl)-5-[4-(4-fluorophenyl)piperidine-1-carbonyl]pyridine-2-sulfonamide] | ≥ 50% | showed a suppressive action on auricle edema response | – | 26% |
| CCNC(=O)NS(=O)(=O)c1cc(Nc2ccc(F)cc2C)c(C(=O)N2CCC(c3ccc(F)cc3)CC2)cn1 [Compound 22, N-(ethylcarbamoyl)-4-(4-fluoro-2-methylphenylamino)-5-[4-(4-fluorophenyl)piperidine-1-carbonyl]pyridine-2-sulfonamide] | ≥ 50% | showed a suppressive action on auricle edema response | 47% | – |
| Cc1cc(F)ccc1Nc1c(C(=O)N2CCC(c3ccc(F)cc3)CC2)cnc(S(N)(=O)=O)c1Cl [Compound 25, 3-chloro-4-(4-fluoro-2-methylphenylamino)-5-[4-(4-fluorophenyl)piperidine-1-carbonyl]pyridine-2-sulfonamide] | ≥ 50% | showed a suppressive action on auricle edema response | 47% | – |
| NS(=O)(=O)c1ncc(C(=O)N2CCC(c3ccc(F)cc3)CC2)c(Nc2cccc(Cl)c2)c1Cl [Compound 176, 3-chloro-4-(3-chlorophenylamino)-5-[4-(4-fluorophenyl)piperidine-1-carbonyl]pyridine-2-sulfonamide] | ≥ 50% | showed a suppressive action on auricle edema response | 42% | – |
| Cc1ccc(Cl)cc1Nc1c(C(=O)N2CCC(c3ccc(F)cc3)CC2)cnc(S(=O)(=O)Nc2ccon2)c1C [Compound 232, 4-(5-chloro-2-methylphenylamino)-5-[4-(4-fluorophenyl)piperidine-1-carbonyl]-N-(isoxazol-3-yl)-3-methylpyridine-2-sulfonamide] | ≥ 50% | showed a suppressive action on auricle edema response | 39% | – |
| Cc1c(S(=O)(=O)Nc2ccon2)ncc(C(=O)N2CCC(c3ccc(F)cc3)CC2)c1Nc1cccc(F)c1 [Compound 233, 5-[4-(4-fluorophenyl)piperidine-1-carbonyl]-4-(3-fluorophenylamino)-N-(isoxazol-3-yl)-3-methylpyridine-2-sulfonamide] | ≥ 50% | showed a suppressive action on auricle edema response | 24% | – |
| Cc1cc(NS(=O)(=O)c2ncc(C(=O)N3CCC(c4ccc(F)cc4)CC3)c(Nc3ccccc3C)c2C)sn1 [Compound 241, 5-[4-(4-fluorophenyl)piperidine-1-carbonyl]-3-methyl-N-(3-methylisothiazol-5-yl)-4-(o-tolylamino)pyridine-2-sulfonamide] | ≥ 50% | showed a suppressive action on auricle edema response | 27% | – |
| Cc1c(S(=O)(=O)Nc2ccon2)ncc(C(=O)N2CCC(c3ccc(F)cc3)CC2)c1Nc1ccc(Cl)cc1 [Compound 259, 4-(4-chlorophenylamino)-5-[4-(4-fluorophenyl)piperidine-1-carbonyl]-N-(isoxazol-3-yl)-3-methylpyridine-2-sulfonamide] | ≥ 50% | showed a suppressive action on auricle edema response | 38% | – |
| NS(=O)(=O)c1ncc(C(=O)N2CCC(c3ccc(F)cc3)CC2)c(Nc2ccc(C(F)(F)F)cc2)c1Cl [Compound 291, 3-chloro-5-[4-(4-fluorophenyl)piperidine-1-carbonyl]-4-[4-(trifluoromethyl)phenylamino]pyridine-2-sulfonamide] | ≥ 50% | showed a suppressive action on auricle edema response | 35% | – |
| NS(=O)(=O)c1ncc(C(=O)N2CCC(c3ccc(F)cc3)CC2)c(Nc2cc(F)ccc2Cl)c1Cl [Compound 325, 3-chloro-4-(2-chloro-5-fluorophenylamino)-5-[4-(4-fluorophenyl)piperidine-1-carbonyl]pyridine-2-sulfonamide] | ≥ 50% | – | – | – |
| Cc1cnc(C)c(Nc2c(C(=O)N3CCC(c4ccc(F)cc4)CC3)cnc(S(N)(=O)=O)c2Cl)c1 [Compound 326, 3-chloro-4-(2,5-dimethylpyridin-3-ylamino)-5-[4-(4-fluorophenyl)piperidine-1-carbonyl]pyridine-2-sulfonamide] | ≥ 50% | – | – | – |
| NS(=O)(=O)c1ncc(C(=O)N2CCC(c3ccc(F)cc3)CC2)c(Nc2ccc(Cl)nc2Cl)c1Cl [Compound 327, 3-chloro-4-(2,6-dichloropyridin-3-ylamino)-5-[4-(4-fluorophenyl)piperidine-1-carbonyl]pyridine-2-sulfonamide] | ≥ 50% | – | – | – |
| Cc1ccc(Nc2c(C(=O)N3CCC(c4ccc(F)cc4)CC3)cnc(S(N)(=O)=O)c2Cl)c(F)c1 [Compound 328, 3-chloro-4-(2-fluoro-4-methylphenylamino)-5-[4-(4-fluorophenyl)piperidine-1-carbonyl]pyridine-2-sulfonamide] | ≥ 50% | – | – | – |
| Cc1cc(S(C)(=O)=O)ccc1Nc1c(C(=O)N2CCC(c3ccc(F)cc3)CC2)cnc(S(N)(=O)=O)c1Cl [Compound 329, 3-chloro-5-[4-(4-fluorophenyl)piperidine-1-carbonyl]-4-[2-methyl-4-(methylsulfonyl)phenylamino]pyridine-2-sulfonamide] | ≥ 50% | – | – | – |
| NS(=O)(=O)c1ncc(C(=O)N2CC(c3ccc(F)cc3)C2)c(NC2(c3ccccc3)CC2)c1Cl [Compound 330, 3-chloro-5-[3-(4-fluorophenyl)azetidine-1-carbonyl]-4-(1-phenylcyclopropylamino)pyridine-2-sulfonamide] | ≥ 50% | – | – | – |
| Cc1ccccc1Nc1c(C(=O)N2CCC(c3ccc(F)cc3)CC2)cnc(S(N)(=O)=O)c1C [Compound 331, 5-[4-(4-fluorophenyl)piperidine-1-carbonyl]-3-methyl-4-(o-tolylamino)pyridine-2-sulfonamide] | ≥ 50% | – | – | – |
